{"source": "patent EP3263567A1", "about": "“CARBOXAMIDE-SUBSTITUTED PYRAZOLES AND TRI(HETERO)ARYL-PYRAZOLES FOR USE IN METHODS OF TREATING AND / OR PREVENTING CARDIOVASCULAR DISEASES AND / OR COMORBIDITIES THEREOF” (AiCuris Anti-infective Cures GmbH, priority 2016, dated 2018)", "key": {"Cav1.2": {"molecular_target": "T1, Cav1.2 (Homo sapiens, UniProt Q13936)", "T1 construct": "expressed in transfected cells; host or cells: CHO (ATCC CCL-61), stably transfected; selection with Hygromycin, Geneticin and Zeocin", "T1 sequence (Q13936 whole entry)": "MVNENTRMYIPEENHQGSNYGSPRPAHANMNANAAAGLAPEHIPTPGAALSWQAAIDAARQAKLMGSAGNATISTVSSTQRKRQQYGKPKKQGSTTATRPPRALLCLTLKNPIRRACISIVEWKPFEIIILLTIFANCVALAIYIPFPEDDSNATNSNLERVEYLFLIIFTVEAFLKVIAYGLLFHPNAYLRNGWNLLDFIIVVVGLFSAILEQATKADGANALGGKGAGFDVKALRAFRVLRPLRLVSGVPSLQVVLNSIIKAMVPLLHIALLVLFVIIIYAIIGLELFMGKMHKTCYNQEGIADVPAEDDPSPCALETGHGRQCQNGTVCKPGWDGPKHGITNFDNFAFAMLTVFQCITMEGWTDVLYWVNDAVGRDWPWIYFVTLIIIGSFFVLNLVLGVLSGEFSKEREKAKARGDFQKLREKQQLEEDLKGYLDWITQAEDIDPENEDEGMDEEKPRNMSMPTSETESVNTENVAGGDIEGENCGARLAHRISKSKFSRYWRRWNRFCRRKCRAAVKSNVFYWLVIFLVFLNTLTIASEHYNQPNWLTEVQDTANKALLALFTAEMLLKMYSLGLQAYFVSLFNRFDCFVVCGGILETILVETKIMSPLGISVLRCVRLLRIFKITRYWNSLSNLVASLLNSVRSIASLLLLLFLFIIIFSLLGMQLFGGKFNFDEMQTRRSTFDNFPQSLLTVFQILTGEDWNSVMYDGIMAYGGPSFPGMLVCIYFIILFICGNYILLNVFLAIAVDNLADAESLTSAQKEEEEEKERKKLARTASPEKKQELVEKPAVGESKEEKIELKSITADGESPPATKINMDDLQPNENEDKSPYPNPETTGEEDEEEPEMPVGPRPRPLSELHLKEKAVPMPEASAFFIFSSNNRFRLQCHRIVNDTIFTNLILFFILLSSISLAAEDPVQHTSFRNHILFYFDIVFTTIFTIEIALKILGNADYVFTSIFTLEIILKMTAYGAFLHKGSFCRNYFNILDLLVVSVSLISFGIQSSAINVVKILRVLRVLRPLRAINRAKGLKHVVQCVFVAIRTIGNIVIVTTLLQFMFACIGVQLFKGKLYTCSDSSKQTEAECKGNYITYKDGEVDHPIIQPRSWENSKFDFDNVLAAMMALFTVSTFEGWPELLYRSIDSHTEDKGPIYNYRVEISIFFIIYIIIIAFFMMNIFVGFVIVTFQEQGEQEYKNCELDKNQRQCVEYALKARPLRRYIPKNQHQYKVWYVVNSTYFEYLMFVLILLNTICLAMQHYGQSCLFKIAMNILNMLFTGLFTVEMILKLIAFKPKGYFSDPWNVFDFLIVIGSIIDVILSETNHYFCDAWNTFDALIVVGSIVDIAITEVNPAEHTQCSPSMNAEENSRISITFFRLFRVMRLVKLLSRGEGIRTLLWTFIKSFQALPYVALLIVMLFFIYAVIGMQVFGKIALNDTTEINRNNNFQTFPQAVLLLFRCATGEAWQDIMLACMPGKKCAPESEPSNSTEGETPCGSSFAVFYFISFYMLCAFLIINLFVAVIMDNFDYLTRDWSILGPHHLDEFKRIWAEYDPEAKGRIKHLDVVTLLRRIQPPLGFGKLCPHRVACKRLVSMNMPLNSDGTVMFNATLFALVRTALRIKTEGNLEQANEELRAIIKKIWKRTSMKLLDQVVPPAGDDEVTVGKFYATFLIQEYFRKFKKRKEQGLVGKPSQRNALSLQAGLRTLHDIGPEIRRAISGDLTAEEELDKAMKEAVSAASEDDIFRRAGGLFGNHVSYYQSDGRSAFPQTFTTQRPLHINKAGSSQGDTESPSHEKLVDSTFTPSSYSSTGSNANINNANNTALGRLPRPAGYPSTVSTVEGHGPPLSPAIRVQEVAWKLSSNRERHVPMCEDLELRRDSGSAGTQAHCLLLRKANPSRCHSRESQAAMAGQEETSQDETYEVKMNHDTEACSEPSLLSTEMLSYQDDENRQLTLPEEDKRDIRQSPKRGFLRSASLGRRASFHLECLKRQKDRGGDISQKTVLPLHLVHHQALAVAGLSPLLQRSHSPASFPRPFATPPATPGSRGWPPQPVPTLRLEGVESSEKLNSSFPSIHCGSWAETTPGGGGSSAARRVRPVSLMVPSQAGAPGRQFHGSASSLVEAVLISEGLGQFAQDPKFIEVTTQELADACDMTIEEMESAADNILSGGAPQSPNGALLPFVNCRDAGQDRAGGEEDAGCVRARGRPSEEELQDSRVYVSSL", "T1 sequence (Q08289 whole entry partner)": "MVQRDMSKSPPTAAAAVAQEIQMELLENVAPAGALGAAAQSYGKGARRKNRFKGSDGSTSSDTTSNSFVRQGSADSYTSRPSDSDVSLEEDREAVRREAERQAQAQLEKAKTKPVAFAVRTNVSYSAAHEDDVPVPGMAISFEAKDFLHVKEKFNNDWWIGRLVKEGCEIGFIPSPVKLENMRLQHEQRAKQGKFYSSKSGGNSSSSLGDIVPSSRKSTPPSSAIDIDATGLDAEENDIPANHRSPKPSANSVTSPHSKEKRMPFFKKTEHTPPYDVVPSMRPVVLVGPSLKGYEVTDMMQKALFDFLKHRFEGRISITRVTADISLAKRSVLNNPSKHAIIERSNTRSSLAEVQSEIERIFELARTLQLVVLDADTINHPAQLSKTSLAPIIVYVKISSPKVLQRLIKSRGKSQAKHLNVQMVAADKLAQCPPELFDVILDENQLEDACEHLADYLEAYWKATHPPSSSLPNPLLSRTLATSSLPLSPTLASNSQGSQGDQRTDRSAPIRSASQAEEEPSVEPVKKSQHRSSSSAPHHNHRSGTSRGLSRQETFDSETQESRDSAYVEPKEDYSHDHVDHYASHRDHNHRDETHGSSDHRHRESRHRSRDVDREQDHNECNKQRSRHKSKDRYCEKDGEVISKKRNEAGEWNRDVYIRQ", "T1 sequence (P54289 25-956 partner limits assumed)": "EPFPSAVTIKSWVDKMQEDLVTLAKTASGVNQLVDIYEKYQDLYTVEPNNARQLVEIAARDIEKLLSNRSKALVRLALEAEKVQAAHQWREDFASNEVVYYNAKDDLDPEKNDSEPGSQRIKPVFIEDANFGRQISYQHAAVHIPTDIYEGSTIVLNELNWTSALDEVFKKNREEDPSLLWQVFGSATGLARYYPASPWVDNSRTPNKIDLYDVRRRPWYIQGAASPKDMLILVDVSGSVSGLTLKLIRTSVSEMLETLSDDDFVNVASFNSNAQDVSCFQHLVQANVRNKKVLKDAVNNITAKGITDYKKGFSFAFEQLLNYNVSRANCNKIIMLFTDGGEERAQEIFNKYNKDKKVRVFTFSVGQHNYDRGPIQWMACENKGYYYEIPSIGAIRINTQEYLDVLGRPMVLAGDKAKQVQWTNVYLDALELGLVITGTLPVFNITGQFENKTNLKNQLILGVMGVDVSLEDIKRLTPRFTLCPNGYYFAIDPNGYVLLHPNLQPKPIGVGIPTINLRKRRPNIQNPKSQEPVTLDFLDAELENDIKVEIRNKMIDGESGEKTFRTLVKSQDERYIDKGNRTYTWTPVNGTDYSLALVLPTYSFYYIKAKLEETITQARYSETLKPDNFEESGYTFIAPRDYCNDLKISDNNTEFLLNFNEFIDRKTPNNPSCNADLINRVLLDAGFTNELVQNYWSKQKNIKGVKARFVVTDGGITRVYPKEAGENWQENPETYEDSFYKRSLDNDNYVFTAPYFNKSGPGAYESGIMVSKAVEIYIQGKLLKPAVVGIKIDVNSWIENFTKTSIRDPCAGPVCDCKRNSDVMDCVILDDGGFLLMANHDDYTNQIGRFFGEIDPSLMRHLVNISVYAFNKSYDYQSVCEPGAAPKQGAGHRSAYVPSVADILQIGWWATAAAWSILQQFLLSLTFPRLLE", "T1 sequence (P54289 957-1103 partner limits assumed)": "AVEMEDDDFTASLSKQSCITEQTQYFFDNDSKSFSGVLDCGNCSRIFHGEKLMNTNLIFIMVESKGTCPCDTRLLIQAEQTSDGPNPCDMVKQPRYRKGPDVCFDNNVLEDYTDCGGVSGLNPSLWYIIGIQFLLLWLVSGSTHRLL", "experiment": "Whole-cell patch-clamp, Cav1.2 currents in stably transfected CHO cells", "format": "cell-based", "details": "summary statement", "experimental": "[drawing 92] i.e. 4-[5-[3-Chloro-5-(trifluoromethoxy) phenyl]-1-(pyridin-3-yl)-1H-pyrazol-3-yl]-5,6-dihydro-7H-pyrrolo[3,4-d]pyrimidin-7-one, was tested for its effects on human Nav1.5, Cav1.2, Kv1.5, and HCN4 currents recorded from stably transfected CHO cells. The effect of four concentrations of this compound on these currents was investigated.\nThe whole-cell patch-clamp technique was used to investigate the effect of Compound A on the currents of Nav1.5, Kv1.5, Cav1.2 and HCN4 channels, expressed in CHO cells (ATCC, CCL-61). Compound A was tested at concentrations of 200 nM, 600 nM, 2000 nM and 6000 nM. […]\nThe 35 mm culture dishes upon which cells were seeded at a density allowing single cells to be recorded were placed on the dish holder of the microscope and continuously perfused (at approximately 1 mL/min) with the bath solution described in section 4.7. […]\nAs soon as a stable seal could be established outward tail currents were measured upon pulses described in the Table below: […]\nValues in Ampere (A) of the peak amplitudes of outward tail currents were generated for each voltage step. […] The recorded current amplitudes at the steady state level of current inhibition were compared to those from control conditions measured in the pre-treatment phase of the same cell. The amount of current block was calculated as percentage of control. […]"}, "Solubility of compound A": {"experiment": "Solubility of compound A", "format": "physicochemical", "details": "for solubility: aqueous media"}}, "data": [{"smiles": "O=C1NCc2c1ncnc2-c1cc(-c2cc(Cl)cc(OC(F)(F)F)c2)n(-c2cccnc2)n1", "note": "[Compound A, 4-[5-[3-Chloro-5-(trifluoromethoxy)phenyl]-1-(pyridin-3-yl)-1H-pyrazol-3-yl]-5,6-dihydro-7H-pyrrolo[3,4-d]pyrimidin-7-one]", "values": [{"measurement": "interaction with ion channels of Cav", "setting": "Cav1.2", "value": "do not interact with other ion channels of Nav, Kav, and Cav substantially"}, {"measurement": "solubility", "setting": "Solubility of compound A; pH 7.4, aqueous buffer", "value": "50 to 70", "unit": "µg/mL"}, {"measurement": "solubility", "setting": "Solubility of compound A; simulated gastric fluid, pH 2.0", "value": 400, "unit": "µg/mL"}, {"measurement": "Solubility (test item description)", "setting": "Solubility of compound A; description of the batch used in Example 3", "value": "soluble in water"}, {"measurement": "solubility in commonly used pharmaceutical excipients", "setting": "Solubility of compound A; oils, cosolvents, surfactants", "value": "very low solubility"}]}]}
